Assay results reported in patent publication US20240279278A1, “NMU RECEPTOR 2 AGONISTS” (Boehringer Ingelheim International GmbH, priority 2023, published 2024).
Residues, ends and D or L forms follow the SMILES beside them.

Tests used:
Type in all cases: cell-based
human NMUR1 receptor = target: T1, human NMUR1 receptor (Homo sapiens, UniProt Q9HB89); assay: IP1 Gq HTRF assay, activation of human NMUR1 in buffer; settings: CHO-K1 cells expressing human NMUR1, stimulation buffer with 0.1% BSA; read-out: EC50 (hNMUR1) buffer
T1 construct: expressed in transfected cells; host or cells: CHO-K1
T1 sequence (Q9HB89 1-426): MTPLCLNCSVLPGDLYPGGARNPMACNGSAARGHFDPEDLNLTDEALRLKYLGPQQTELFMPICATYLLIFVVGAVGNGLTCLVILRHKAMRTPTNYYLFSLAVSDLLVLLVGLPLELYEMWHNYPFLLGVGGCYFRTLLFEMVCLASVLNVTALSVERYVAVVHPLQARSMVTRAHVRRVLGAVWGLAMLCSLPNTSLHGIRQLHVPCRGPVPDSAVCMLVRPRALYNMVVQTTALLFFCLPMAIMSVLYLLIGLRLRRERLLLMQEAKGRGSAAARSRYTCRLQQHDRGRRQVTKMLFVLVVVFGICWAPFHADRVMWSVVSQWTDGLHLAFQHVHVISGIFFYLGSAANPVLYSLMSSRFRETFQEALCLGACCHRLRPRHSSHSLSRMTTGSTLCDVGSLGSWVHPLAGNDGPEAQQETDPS
Source text: (§1) Example 3: IP1 Gq HTRF Assay Activation of Human NMUR2 or Human NMUR1 in Buffer Application of the Homogenous Time Resolved Fluorescence (HTRF) technology optimized for Gq coupled receptors has been described in detail in the Cisbio IP-One Gq kit manual. In brief, a FRET signal (FRET: fluorescence resonance energy transfer) is generated between the donor label of an IP-One antibody (anti-IP1-Tb) and the acceptor label of a tagged IP-One (IP1-d2). Agonism of a Gq coupled receptor increases intracellular IP-One, which competes with labeled IP-One and leads to a reduction of the FRET signal. Frozen stocks of CHO-K1 cells stably expressing the human NMUR1 or NMUR2 receptor were thawed and 5000 cells were seeded in culture medium (HAM'S F12, 10% FCS) into each well of a 384-well assay plate. After seeding, cells were incubated for 24 h in a humidified incubator at 37° C. and 5% CO2. Next, cells were washed once with 50 μL of wash buffer (20 mM Hepes, 1×HBSS, pH 7.4), followed by addition of either 10 μL of stimulation buffer (20 mM Hepes, 1×HBSS, 50 mM LiCl, 0.1% BSA, pH 7.4). Peptide agonists to be tested were dissolved in 100% DMSO and pre-diluted in stimulation buffer at a suitable concentration range for an 8 pt dose-response curve. 5 μL of peptide pre-dilution were then added to each well, followed by another 5 μL of stimulation buffer to give a final concentration of 1% DMSO. Samples were subsequently incubated for 1 hour in a humidified incubator at 37° C. After addition of 5 μL each of IP1-d2 and anti-IP1-Tb, samples were incubated for another 1 hour at room temperature and FRET signals (ratio 665 nm/620 nm) were measured. EC50 values were calculated by nonlinear regression using a 4-parameter sigmoidal curve fit.

human NMUR2 receptor [1] = target: T2, human NMUR2 receptor (Homo sapiens, UniProt Q9GZQ4); assay: IP1 Gq HTRF assay, activation of human NMUR2 in buffer; design: expressed in transfected cells; host or cells: CHO-K1; settings: CHO-K1 cells expressing human NMUR2, stimulation buffer with 0.1% BSA; read-out: EC50 (hNMUR2) buffer
Source text: as §1

human NMUR2 receptor [2] = target: T2, human NMUR2 receptor; assay: IP1 Gq HTRF assay, activation of human NMUR2 in human plasma; design: expressed in transfected cells; host or cells: CHO-K1; settings: CHO-K1 cells expressing human NMUR2, 100% human plasma; read-out: EC50 (hNMUR2) human plasma
Source text: Example 4: IP1 Gq HTRF Assay Activation of Human NMUR2 in Human Plasma Application of the Homogenous Time Resolved Fluorescence (HTRF) technology optimized for Gq coupled receptors has been described in detail in the Cisbio IP-One Gq kit manual. In brief, a FRET signal is generated between the donor label of an IP-One antibody (anti-IP1-Tb) and the acceptor label of a tagged IP-One (IP1-d2). Agonism of a Gq coupled receptor increases intracellular IP-One, which competes with labeled IP-One and leads to a reduction of the FRET signal. Frozen stocks of CHO-K1 cells stably expressing the human NMUR1 receptor or human NMUR2 receptor were thawed and 5000 cells were seeded in culture medium (HAM'S F12, 10% FCS) into each well of a 384-well assay plate. After seeding, cells were incubated for 24 h in a humidified incubator at 37° C. and 5% CO2. Next, cells were washed once with […] of wash buffer (20 mM Hepes, 1×HBSS, pH 7.4), followed by addition of […] (100% human plasma, 50 mM LiCl). Peptide agonists to be tested were dissolved in 100% DMSO and pre-diluted in plasma at a suitable concentration range for an 8 pt dose-response curve. 5 μL of peptide pre-dilution were then added to each well, followed by another 5 μL of plasma to give a final concentration of 1% DMSO. Samples were subsequently incubated for 1 hour in a humidified incubator at 37° C. The plasma solution was replaced by 20 μL of stimulation buffer. After addition of 5 μL each of IP1-d2 and anti-IP1-Tb, samples were incubated for another 1 hour at room temperature and FRET signals (ratio 665 nm/620 nm) were measured. EC50 values were calculated by nonlinear regression using a 4-parameter sigmoidal curve fit.

T2 sequence (Q9GZQ4 whole entry): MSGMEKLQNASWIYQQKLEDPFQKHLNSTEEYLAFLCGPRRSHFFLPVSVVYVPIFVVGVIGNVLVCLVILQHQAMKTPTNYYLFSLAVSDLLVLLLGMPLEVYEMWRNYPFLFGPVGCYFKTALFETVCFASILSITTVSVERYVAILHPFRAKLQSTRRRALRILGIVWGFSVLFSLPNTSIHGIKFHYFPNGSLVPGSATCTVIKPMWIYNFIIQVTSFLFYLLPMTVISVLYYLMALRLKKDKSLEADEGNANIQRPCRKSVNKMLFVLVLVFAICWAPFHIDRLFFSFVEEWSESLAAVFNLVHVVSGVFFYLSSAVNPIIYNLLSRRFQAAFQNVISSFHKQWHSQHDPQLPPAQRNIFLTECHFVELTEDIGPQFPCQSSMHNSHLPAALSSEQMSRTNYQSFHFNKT

Work on `CCCC[C@H](NC(=O)[C@H](CC(C)C)N(C)C(=O)[C@H](Cc1ccccc1)NC(=O)[C@H](Cc1ccc(O)cc1)NC(=O)CN1CCN(CCNC(=O)CN(C)C(=O)CN(C)C(=O)CN(C)C(=O)CN(C)C(=O)CN(C)C(=O)CN(C)C(=O)CN(C)C(=O)CN(C)C(=O)CN(C)C(=O)CN(C)C(=O)CN(C)C(=O)CN(C)C(=O)CN(C)C(=O)CN(C)C(=O)CN(C)C(=O)CC[C@H](NC(=O)CC[C@H](NC(=O)CC[C@H](NC(=O)CC[C@H](NC(=O)CCCCCCCCCCCCCCCCCCC(=O)O)C(=O)O)C(=O)O)C(=O)O)C(=O)O)CC1)C(=O)N[C@@H](CCCN)C(=O)N1CCC[C@H]1C(=O)N[C@@H](CCCNC(=N)N)C(=O)NCC(N)=O` [Compound 3, C20DA-gGlu4-Sar15-AEPipAc-Tyr-Phe-NMeLeu-Nle-Orn-Pro-Arg-Gly-NH2] (HELM PEPTIDE1{[O=C(O)CCCCCCCCCCCCCCCCCCC(=O)[*:2]].[gGlu].[gGlu].[gGlu].[gGlu].[Sar].[Sar].[Sar].[Sar].[Sar].[Sar].[Sar].[Sar].[Sar].[Sar].[Sar].[Sar].[Sar].[Sar].[Sar].[O=C(CN1CCN(CCN[*:1])CC1)[*:2]].Y.F.[meL].[Nle].[Orn].P.R.G.[am]}$$$$V2.0) yielded an EC50 (human NMUR1 receptor) of 440 nM, an EC50 (human NMUR2 receptor [1]) of 1.9 nM and an EC50 (human NMUR2 receptor [2]) of 5.6 nM.

`CCCC[C@H](NC(=O)[C@H](CC(C)C)N(C)C(=O)[C@H](Cc1ccccc1)NC(=O)[C@H](Cc1ccc(O)cc1)NC(=O)CN1CCN(CCNC(=O)CN(C)C(=O)CN(C)C(=O)CN(C)C(=O)CN(C)C(=O)CN(C)C(=O)CN(C)C(=O)CN(C)C(=O)CN(C)C(=O)CN(C)C(=O)CN(C)C(=O)CN(C)C(=O)CN(C)C(=O)CN(C)C(=O)CN(C)C(=O)CN(C)C(=O)CC[C@H](NC(=O)CC[C@H](NC(=O)CC[C@H](NC(=O)CC[C@H](NC(=O)CCCCCCCCCCCCCCCCCCC(=O)O)C(=O)O)C(=O)O)C(=O)O)C(=O)O)CC1)C(=O)N[C@@H](CCN)C(=O)N1CCC[C@H]1C(=O)N[C@@H](CCCNC(=N)N)C(=O)NCC(N)=O` [Compound 4, C20DA-gGlu4-Sar15-AEPipAc-Tyr-Phe-NMeLeu-Nle-Dbu-Pro-Arg-Gly-NH2] (HELM PEPTIDE1{[O=C(O)CCCCCCCCCCCCCCCCCCC(=O)[*:2]].[gGlu].[gGlu].[gGlu].[gGlu].[Sar].[Sar].[Sar].[Sar].[Sar].[Sar].[Sar].[Sar].[Sar].[Sar].[Sar].[Sar].[Sar].[Sar].[Sar].[O=C(CN1CCN(CCN[*:1])CC1)[*:2]].Y.F.[meL].[Nle].[Dab].P.R.G.[am]}$$$$V2.0) showed an EC50 (human NMUR1 receptor) of 770 nM, an EC50 (human NMUR2 receptor [1]) of 2 nM and an EC50 (human NMUR2 receptor [2]) of 5.8 nM.

In the case of `CCCC[C@H](NC(=O)[C@H](CC(C)C)N(C)C(=O)[C@H](Cc1ccccc1)NC(=O)[C@H](Cc1ccc(O)cc1)NC(=O)CN1CCN(CCNC(=O)CN(C)C(=O)CN(C)C(=O)CN(C)C(=O)CN(C)C(=O)CN(C)C(=O)CN(C)C(=O)CN(C)C(=O)CN(C)C(=O)CN(C)C(=O)CN(C)C(=O)CN(C)C(=O)CN(C)C(=O)CC[C@H](NC(=O)CC[C@H](NC(=O)CC[C@H](NC(=O)CC[C@H](NC(=O)CCCCCCCCCCCCCCCCCCC(=O)O)C(=O)O)C(=O)O)C(=O)O)C(=O)O)CC1)C(=O)N[C@@H](CCCN)C(=O)N(C)[C@@H](C)C(=O)N[C@@H](CCCNC(=N)N)C(=O)NCC(N)=O` [Compound 13, C20DA-gGlu4-Sar12-AEPipAc-Tyr-Phe-NMeLeu-Nle-Orn-NMeAla-Arg-Gly-NH2], the EC50 (human NMUR1 receptor) is reported as 1200 nM, the EC50 (human NMUR2 receptor [1]) is reported as 3.5 nM and the EC50 (human NMUR2 receptor [2]) is reported as 10.2 nM.

`CCCC[C@H](NC(=O)[C@H](CC(C)C)N(C)C(=O)[C@H](Cc1ccccc1)NC(=O)[C@H](Cc1ccc(O)cc1)NC(=O)CN1CCN(CCNC(=O)CN(C)C(=O)CN(C)C(=O)CN(C)C(=O)CN(C)C(=O)CN(C)C(=O)CN(C)C(=O)CN(C)C(=O)CN(C)C(=O)CN(C)C(=O)CN(C)C(=O)CN(C)C(=O)CN(C)C(=O)CN(C)C(=O)CN(C)C(=O)CN(C)C(=O)CC[C@H](NC(=O)CC[C@H](NC(=O)CC[C@H](NC(=O)CC[C@H](NC(=O)CCCCCCCCCCCCCCCCCCC(=O)O)C(=O)O)C(=O)O)C(=O)O)C(=O)O)CC1)C(=O)N[C@@H](CCCN)C(=O)N(C)[C@@H](C)C(=O)N[C@@H](CCCNC(=N)N)C(=O)NCC(N)=O` [Compound 14, C20DA-gGlu4-Sar15-AEPipAc-Tyr-Phe-NMeLeu-Nle-Orn-NMeAla-Arg-Gly-NH2] (HELM PEPTIDE1{[O=C(O)CCCCCCCCCCCCCCCCCCC(=O)[*:2]].[gGlu].[gGlu].[gGlu].[gGlu].[Sar].[Sar].[Sar].[Sar].[Sar].[Sar].[Sar].[Sar].[Sar].[Sar].[Sar].[Sar].[Sar].[Sar].[Sar].[O=C(CN1CCN(CCN[*:1])CC1)[*:2]].Y.F.[meL].[Nle].[Orn].[meA].R.G.[am]}$$$$V2.0) was tested, and the EC50 (human NMUR1 receptor) was 1400 nM, the EC50 (human NMUR2 receptor [1]) was 2.9 nM and the EC50 (human NMUR2 receptor [2]) was 10.3 nM.

`CCCC[C@H](NC(=O)[C@H](CC(C)C)N(C)C(=O)[C@H](Cc1ccccc1)NC(=O)[C@H](Cc1ccc(O)cc1)NC(=O)CN1CCN(CCNC(=O)CN(C)C(=O)CN(C)C(=O)CN(C)C(=O)CN(C)C(=O)CN(C)C(=O)CN(C)C(=O)CN(C)C(=O)CN(C)C(=O)CN(C)C(=O)CN(C)C(=O)CN(C)C(=O)CN(C)C(=O)CN(C)C(=O)CN(C)C(=O)CN(C)C(=O)CC[C@H](NC(=O)CC[C@H](NC(=O)CC[C@H](NC(=O)CC[C@H](NC(=O)CCCCCCCCCCCCCCCCCCC(=O)O)C(=O)O)C(=O)O)C(=O)O)C(=O)O)CC1)C(=O)N[C@@H](CCN)C(=O)N(C)[C@@H](C)C(=O)N[C@@H](CCCNC(=N)N)C(=O)NCC(N)=O` [Compound 16, C20DA-gGlu4-Sar15-AEPipAc-Tyr-Phe-NMeLeu-Nle-Dbu-NMeAla-Arg-Gly-NH2] (HELM PEPTIDE1{[O=C(O)CCCCCCCCCCCCCCCCCCC(=O)[*:2]].[gGlu].[gGlu].[gGlu].[gGlu].[Sar].[Sar].[Sar].[Sar].[Sar].[Sar].[Sar].[Sar].[Sar].[Sar].[Sar].[Sar].[Sar].[Sar].[Sar].[O=C(CN1CCN(CCN[*:1])CC1)[*:2]].Y.F.[meL].[Nle].[Dab].[meA].R.G.[am]}$$$$V2.0) was tested, and the EC50 (human NMUR1 receptor) was > 1000 nM, the EC50 (human NMUR2 receptor [1]) was 3.3 nM and the EC50 (human NMUR2 receptor [2]) was 11 nM.
